Laboratory results reported in the NIST ThermoML archive (doi:10.1021/je301087w).
Numbers after ± are expanded uncertainties.

Key:
[1] = Crystal; DTA
[2] = Molar enthalpy of transition or fusion; settings: Crystal; DSC

SMILES	Normal melting temperature [1]	Molar enthalpy of transition or fusion [2]
C1COCCOCCOCCOCCOCCO1.O.O.O.O.O.O.O.O.O.O.O.O [1,4,7,10,13,16-hexaoxacyclooctadecane dodecahydrate]	9.90 ± 0.53 °C	4.66 ± 0.932 kcal/mol
C1COCCOCCOCCOCCOCCO1.O.O.O.O.O.O.O.O [1,4,7,10,13,16-hexaoxacyclooctadecane octahydrate]	17.10 ± 0.53 °C	2.8 ± 0.574 kcal/mol
C1COCCOCCOCCOCCOCCO1 [1,4,7,10,13,16-hexaoxacyclooctadecane]	39.10 ± 0.53 °C	8.48 ± 0.741 kcal/mol
